Type in all cases: in vivo, mouse
Assay [1] concerns Osteocalcin−/− mice. Kind of assay: Behavioral tests of Osteocalcin−/− mice with ICV infusion (DLT, EPMT, OFT, FST, TST). The following applies: for anxiety / depression: ICV infusion 10 ng/hour, week-long, Osteocalcin−/− mice. The method, then: FIG. 12. Administration of osteocalcin alleviates anxiety and depression. (A-E) Behavioral analyses of adult Osteocalcin^−/− mice receiving recombinant uncarboxylated osteocalcin through intracerebro-ventricular (ICV) infusions. (A) Light and Dark test, (B) Elevated plus maze test, (C) Open field test, (D) Forced swim test, and (E) Tail suspension test performed in a cohort of WT (n=7) and Osteocalcin^−/− infused with vehicle or recombinant uncarboxylated osteocalcin (10 ng/hour). In each set of three bars, the rightmost bar represents the results following administration of osteocalcin.
For osteocalcin delivery to pregnant mice, IP injections (240 ng/day) were performed as soon as a plug was present daily until delivery (E0.5-E18.5). For osteocalcin or leptin infusion in adult Osteocalcin^−/− or ob/ob mice, pumps (Alzet micro-osmotic pump, Model 1002) delivering osteocalcin (300 ng/hr), leptin (50 ng/hr), or vehicle were surgically installed subcutaneously in the backs of 3-month old mice. For the postnatal rescue of cognitive functions in Osteocalcin^−/− mice, osteocalcin (10 ng/hour) or vehicle were delivered intrasubventricularly (icv) as previously described (Ducy et al., 2000, Cell 100:197-207). Leptin and osteocalcin content in sera and tissues were determined by ELISA.
Tail suspension testing was performed as previously described (Mayorga et al., 2001, J. Pharmacology Exper. Therapeutics 298:1101-1107; Steru et al., 1985, Psychopharmacology 85:367-370). Mice were transported a short distance from the holding facility to the testing room and left there undisturbed for at least 1 hour. Mice were individually suspended by the tail (distance from floor was 35 cm) using adhesive tape (distance from tip of tail was 2 cm). […] The parameter recorded was the number of seconds spent immobile. Mice were scored by a highly trained observer, over a 5 min period, blind to the genotype of the mice.
Anxiety and locomotor activity of mice were measured using the open field test (David et al., 2009, Neuron 62:479-493). Each animal was placed in a 43×43 cm open field chamber, and tested for 30 min. Mice were monitored throughout each test session by video tracking and analyzed using Matlab software. Mice were placed individually into the center of the open-field arena and allowed to explore freely. The overall motor activity was quantified as the total distance travelled. The anxiety was quantified measuring the number of rearings and the time and distance spent in the center versus periphery of the open field chamber (in %).
Each mouse was allowed to explore the apparatus for 5 min. Global activity was assessed by measuring the number of entries […] (David et al, 2009, Neuron 62:479-493). Anxiety was assessed by comparing the time spent in the open arms.
The forced swimming test was carried out according to the method described by David et al., 2009, Neuron 62:479-493. Briefly, mice were dropped individually into glass cylinders (height: 25 cm, diameter: 10 cm) containing 10 cm water height., maintained at 23-25° C. Animals were tested for a total of 6 min. The total duration of immobility time was recorded. Mice were considered immobile when they made no attempts to escape with the exception of the movements necessary to keep their heads above the water. Mice were scored by an observer blind to their genotypes.
The test was performed in a quiet, darkened room. Mice were individually housed in cages containing a handful of bedding from their home cage and acclimated to the room at least 1 h before the test. Naïve mice were placed individually in the testing chamber in the dark compartment. The test was 5 min in duration, and time spent and number of entries in light compartments were recorded a highly trained observer, blind to the genotype of the mice. […]

In assay [2] the test system is wild type mice injected with gold thioglucose (GTG). Kind of assay: GTG-induced obesity. On the procedure: FIG. 5. Osteocalcin subcutaneous infusion alleviates GTG-induced obesity in wild-type mice. Wild-type mice were injected with gold thioglucose (GTG) or vehicle to induce hyperphagia and obesity. Two weeks later they were implanted with subcutaneous osmotic pumps infusing […] of recombinant osteocalcin or PBS for 28 days before. Body weight gain was recorded thereafter at indicated days.
For GTG-induced obesity, male and female 4 week-old wild-type (WT) and Osteocalcin^−/− mice (n=10 per group) were injected with […] of GTG
The effect of uncarboxylated osteocalcin on GTG-induced obesity was investigated (FIG. 5). Wild type mice were injected with gold thioglucose (GTG) to induce hyperphagia and obesity or vehicle. Two weeks later they were implanted with subcutaneous osmotic pumps infusing 1 ng/hr of recombinant uncarboxylated osteocalcin or PBS for 28 days. […] At 28 days, body weight was reduced by about 15% with uncarboxylated osteocalcin treatment.

The subject of assay [3] is wild type mice. Kind of assay: Glucose tolerance test after subcutaneous infusion. As to conditions: 0.3 or 3 ng/hour subcutaneously for 14 days, 120 minutes following glucose injection. On the procedure: FIG. 2. Osteocalcin subcutaneous infusion increases glucose tolerance in wild-type mice. Wild-type mice were infused subcutaneously with indicated doses of recombinant osteocalcin or PBS for 14 days before receiving a single injection of glucose. Blood glucose was measured thereafter at indicated times.
For glucose tolerance test (GTT), glucose (2 g/kg body weight (BW)) was injected intraperitoneally (IP) after an overnight fast and blood glucose was monitored using blood glucose strips and the Accu-Check glucometer (Roche) at indicated times.
In another in vivo experiment, the effect of uncarboxylated osteocalcin on glucose tolerance was investigated. Wild type mice were infused subcutaneously with either 0.3 or 3 ng/hour doses of recombinant uncarboxylated osteocalcin or PBS for 14 days before receiving a single injection of glucose. Blood glucose was measured thereafter at the indicated times.

The mark [4] stands for this setting: listed as undercarboxylated/uncarboxylated osteocalcin.

With “uncarboxylated osteocalcin: Recombinant uncarboxylated mouse osteocalcin, bacterially produced, purified on glutathione beads and cleaved from the GST subunit by thrombin (YLGASVPSPDPLEPTREQCELNPACDELSDQYGLKTAYKRIYGITI)”, the values for the anxiety result in assay [1], in assay [1] (listed as osteocalcin) and in assay [1] (setting [4]) were “corrected”, “alleviates” and “rescued”, respectively. Moreover, the results for the depression result in assay [1], in assay [1] (listed as osteocalcin) and in assay [1] (setting [4]) were “corrected”, “alleviates” and “rescued”, respectively. Also, the learning and memory entry in assay [1] (direct administration to the brains of adult Osteocalcin−/− mice) is reported as “rescued”. The body weight gain entry in assay [2] (1 ng/hr subcutaneous osmotic pumps for 28 days, from 7 days on) is given as “significantly reduced”. In addition, in assay [2] (1 ng/hr, at 28 days), the “reduction of body weight” value was “about 15%”. In assay [2] (subcutaneous infusion 28 days (FIG. 5 title)), the GTG-induced obesity result is reported as “alleviates”. The values for the glucose tolerance entry in assay [3] and in assay [3] (listed as Osteocalcin) were “increased” and “increases”, respectively.

Source of the values: patent US11191811B2, “Osteocalcin as a treatment for frailty associated with aging” (THE TRUSTEES OF COLUMBIA UNIVERSITY IN THE CITY OF NEW YORK, priority 2014, dated 2021).
